# Measured values: patent US10654832B2, “3-(benzoimidazol-2-YL)-indazole inhibitors of the Wnt signaling pathway and therapeutic uses thereof” (Samumed, LLC, priority 2013, dated 2020)
# System: Wnt activity (wnt-responsive SP5 promoter luciferase reporter in SW480 cells)
# Assay: Wnt activity reporter assay (SP5 promoter-firefly luciferase in SW480 cells)
# Format: cell-based
# Settings: Homo sapiens; SW480 colon cancer cells with SP5 promoter luciferase reporter; 24 h after compound addition; half-log dilutions, three micromolar top concentration; normalized to DMSO; read-out: Wnt inhibition
# From the text: The above synthesized compounds were screened using the assay procedure for Wnt activity described below.
# Reporter cell lines were generated by stably transducing cells of cancer cell lines (e.g., colon cancer) with a lentiviral construct that include a wnt-responsive promoter driving expression of the firefly luciferase gene.
# Lentiviral constructs were made in which the SP5 promoter, a promoter having eight TCF/LEF binding sites derived from the SP5 promoter, was linked upstream of the firefly luciferase gene. The lentiviral constructs included a hygromycin resistance gene as a selectable marker. The SP5 promoter construct was used to transduce SW480 cells, a colon cancer cell line having a mutated APC gene that generates a truncated APC protein, leading to de-regulated accumulation of β-catenin.
# Cultured SW480 cells bearing a reporter construct were distributed at approximately 10,000 cells per well into 384 well multiwell plates. Compounds were then added to the wells in half-log dilutions using a three micromolar top concentration. A series of control wells for each cell type received only buffer and compound solvent. Twenty-four hours after the addition of compound, reporter activity for luciferases was assayed, for example, by addition of the BrightGlo luminescence reagent (Promega) and the Victor3 plate reader (Perkin Elmer). Readings were normalized to DMSO only treated cells, and normalized activities were then used for the IC50 calculations.
smiles,measurement,value
"CCC(=O)Nc1cncc(-c2ccc3[nH]nc(-c4nc5c(-c6cccc(F)c6)cccc5[nH]4)c3c2)c1 [Compound 1, N-(5-(3-(4-(3-Fluorophenyl)-1H-benzo[d]imidazol-2-yl)-1H-indazol-5-yl)pyridin-3-yl)propionamide]",IC50,2 nM
"Fc1cccc(-c2cccc3[nH]c(-c4n[nH]c5ccc(-c6cccnc6)cc45)nc23)c1 [Compound 4, 3-(4-(3-Fluorophenyl)-1H-benzo[d]imidazol-2-yl)-5-(pyridin-3-yl)-1H-indazole]",IC50,4 nM
"Cc1ccncc1-c1ccc2[nH]nc(-c3nc4c(-c5cccc(F)c5)cccc4[nH]3)c2c1 [Compound 5, 3-(4-(3-Fluorophenyl)-1H-benzo[d]imidazol-2-yl)-5-(4-methylpyridin-3-yl)-1H-indazole]",IC50,34 nM
"CN(C)c1cncc(-c2ccc3[nH]nc(-c4nc5c(-c6cccc(F)c6)cccc5[nH]4)c3c2)c1 [Compound 7, 5-(3-(4-(3-Fluorophenyl)-1H-benzo[d]imidazol-2-yl)-1H-indazol-5-yl)-N,N-dimethylpyridin-3-amine]",IC50,8 nM
"CC(C)C(=O)Nc1cncc(-c2ccc3[nH]nc(-c4nc5c(-c6cccc(F)c6)cccc5[nH]4)c3c2)c1 [Compound 9, N-(5-(3-(4-(3-Fluorophenyl)-1H-benzo[d]imidazol-2-yl)-1H-indazol-5-yl)pyridin-3-yl)isobutyramide]",IC50,250 nM
"O=C(Cc1ccccc1)Nc1cncc(-c2ccc3[nH]nc(-c4nc5c(-c6cccc(F)c6)cccc5[nH]4)c3c2)c1 [Compound 10, N-(5-(3-(4-(3-Fluorophenyl)-1H-benzo[d]imidazol-2-yl)-1H-indazol-5-yl)pyridin-3-yl)-2-phenylacetamide]",IC50,69 nM
"CN(C)Cc1cncc(-c2ccc3[nH]nc(-c4nc5c(-c6cccc(F)c6)cccc5[nH]4)c3c2)c1 [Compound 13, 1-(5-(3-(4-(3-Fluorophenyl)-1H-benzo[d]imidazol-2-yl)-1H-indazol-5-yl)pyridin-3-yl)-N,N-dimethylmethanamine]",IC50,11 nM
"CC(C)(C)CC(=O)Nc1cncc(-c2ccc3[nH]nc(-c4nc5c(-c6cccc(F)c6)cccc5[nH]4)c3c2)c1 [Compound 16, N-(5-(3-(4-(3-Fluorophenyl)-1H-benzo[d]imidazol-2-yl)-1H-indazol-5-yl)pyridin-3-yl)-3,3-dimethylbutanamide]",IC50,31 nM
"CCCCC(=O)Nc1cncc(-c2ccc3[nH]nc(-c4nc5c(-c6cccc(F)c6)cccc5[nH]4)c3c2)c1 [Compound 18, N-(5-(3-(4-(3-Fluorophenyl)-1H-benzo[d]imidazol-2-yl)-1H-indazol-5-yl)pyridin-3-yl)pentanamide]",IC50,30 nM
"O=C(Nc1cncc(-c2ccc3[nH]nc(-c4nc5c(-c6cccc(F)c6)cccc5[nH]4)c3c2)c1)C1CC1 [Compound 19, N-(5-(3-(4-(3-Fluorophenyl)-1H-benzo[d]imidazol-2-yl)-1H-indazol-5-yl)pyridin-3-yl)cyclopropanecarboxamide]",IC50,5 nM
"O=C(Nc1cncc(-c2ccc3[nH]nc(-c4nc5c(-c6cccc(F)c6)cccc5[nH]4)c3c2)c1)C1CCCC1 [Compound 21, N-(5-(3-(4-(3-Fluorophenyl)-1H-benzo[d]imidazol-2-yl)-1H-indazol-5-yl)pyridin-3-yl)cyclopentanecarboxamide]",IC50,50 nM
"O=C(Nc1cncc(-c2ccc3[nH]nc(-c4nc5c(-c6cccc(F)c6)cccc5[nH]4)c3c2)c1)C1CCCCC1 [Compound 22, N-(5-(3-(4-(3-Fluorophenyl)-1H-benzo[d]imidazol-2-yl)-1H-indazol-5-yl)pyridin-3-yl)cyclohexanecarboxamide]",IC50,180 nM
"CC(C)CC(=O)Nc1cncc(-c2ccc3[nH]nc(-c4nc5c(-c6ccc(F)cc6)cccc5[nH]4)c3c2)c1 [Compound 26, N-(5-(3-(4-(4-Fluorophenyl)-1H-benzo[d]imidazol-2-yl)-1H-indazol-5-yl)pyridin-3-yl)-3-methylbutanamide]",IC50,179 nM
"Cc1ccncc1-c1ccc2[nH]nc(-c3nc4c(-c5ccc(F)cc5)cccc4[nH]3)c2c1 [Compound 29, 3-(4-(4-Fluorophenyl)-1H-benzo[d]imidazol-2-yl)-5-(4-methylpyridin-3-yl)-1H-indazole]",IC50,100 nM
"CC(C)(C)C(=O)Nc1cncc(-c2ccc3[nH]nc(-c4nc5c(-c6ccc(F)cc6)cccc5[nH]4)c3c2)c1 [Compound 32, N-(5-(3-(4-(4-Fluorophenyl)-1H-benzo[d]imidazol-2-yl)-1H-indazol-5-yl)pyridin-3-yl)pivalamide]",IC50,35 nM
"CC(C)C(=O)Nc1cncc(-c2ccc3[nH]nc(-c4nc5c(-c6ccc(F)cc6)cccc5[nH]4)c3c2)c1 [Compound 33, N-(5-(3-(4-(4-Fluorophenyl)-1H-benzo[d]imidazol-2-yl)-1H-indazol-5-yl)pyridin-3-yl)isobutyramide]",IC50,34 nM
"O=C(Nc1cncc(-c2ccc3[nH]nc(-c4nc5c(-c6ccc(F)cc6)cccc5[nH]4)c3c2)c1)c1ccccc1 [Compound 35, N-(5-(3-(4-(4-Fluorophenyl)-1H-benzo[d]imidazol-2-yl)-1H-indazol-5-yl)pyridin-3-yl)benzamide]",IC50,161 nM
"Fc1ccc(-c2cccc3[nH]c(-c4n[nH]c5ccc(-c6cncc(CN7CCCC7)c6)cc45)nc23)cc1 [Compound 38, 3-(4-(4-Fluorophenyl)-1H-benzo[d]imidazol-2-yl)-5-(5-(pyrrolidin-1-ylmethyl)pyridin-3-yl)-1H-indazole]",IC50,153 nM
"CCCC(=O)Nc1cncc(-c2ccc3[nH]nc(-c4nc5c(-c6ccc(F)cc6)cccc5[nH]4)c3c2)c1 [Compound 41, N-(5-(3-(4-(4-Fluorophenyl)-1H-benzo[d]imidazol-2-yl)-1H-indazol-5-yl)pyridin-3-yl)butyramide]",IC50,15 nM
"CCCCC(=O)Nc1cncc(-c2ccc3[nH]nc(-c4nc5c(-c6ccc(F)cc6)cccc5[nH]4)c3c2)c1 [Compound 42, N-(5-(3-(4-(4-Fluorophenyl)-1H-benzo[d]imidazol-2-yl)-1H-indazol-5-yl)pyridin-3-yl)pentanamide]",IC50,33 nM
"O=C(Nc1cncc(-c2ccc3[nH]nc(-c4nc5c(-c6ccc(F)cc6)cccc5[nH]4)c3c2)c1)C1CC1 [Compound 43, N-(5-(3-(4-(4-Fluorophenyl)-1H-benzo[d]imidazol-2-yl)-1H-indazol-5-yl)pyridin-3-yl)cyclopropanecarboxamide]",IC50,43 nM
"O=C(Nc1cncc(-c2ccc3[nH]nc(-c4nc5c(-c6ccc(F)cc6)cccc5[nH]4)c3c2)c1)C1CCC1 [Compound 44, N-(5-(3-(4-(4-Fluorophenyl)-1H-benzo[d]imidazol-2-yl)-1H-indazol-5-yl)pyridin-3-yl)cyclobutanecarboxamide]",IC50,140 nM
"O=C(Nc1cncc(-c2ccc3[nH]nc(-c4nc5c(-c6ccc(F)cc6)cccc5[nH]4)c3c2)c1)C1CCCC1 [Compound 45, N-(5-(3-(4-(4-Fluorophenyl)-1H-benzo[d]imidazol-2-yl)-1H-indazol-5-yl)pyridin-3-yl)cyclopentanecarboxamide]",IC50,110 nM
"O=C(Nc1cncc(-c2ccc3[nH]nc(-c4nc5c(-c6ccc(F)cc6)cccc5[nH]4)c3c2)c1)C1CCCCC1 [Compound 46, N-(5-(3-(4-(4-Fluorophenyl)-1H-benzo[d]imidazol-2-yl)-1H-indazol-5-yl)pyridin-3-yl)cyclohexanecarboxamide]",IC50,225 nM
